Laboratory results as given in patent publication US6512112B2, “Aminoaryl oxazolidinone N-oxides” (Pharmacia & Upjohn Company, priority 1995, dated 2003).
Values after ≈ are worked out from the molar mass of the structure shown. Like-named read-outs stand apart in the source and are kept apart here.

Experiments:
S. Aureus UC ® 9213 = assay: Minimum inhibitory concentration (MIC) by agar dilution; format: cell-based; conditions: Staphylococcus aureus, UC9213
Procedure: (§1) The oxazolidinone compounds of the present invention have useful activity against a variety of microorganisms. The in vitro activity of compounds of the present invention are assessed by standard testing procedures such as the determination of minimum inhibitory concentration (MIC) by agar dilution as described in “Methods for Dilution Antimicrobial Susceptiblity Tests for Bacteria That Grow Aerobically” (MFT) published January 1993 by the National Committee for Clinical Laboratory Standards (NCCLS), 771 East Lancaster Avenue, Villanova, Pa. 19084, USA. The activity of selected compounds of the present invention against Staphylococcus aureus and Streptococcus pneumoniae are shown in Table 2.

S. Pneumoniae UC ® 9912 = assay: as above; format: cell-based; conditions: Streptococcus pneumoniae, UC9912
Procedure: as §1

[1] = Solubility in pH 7, 50 mM phosphate buffer; format: physicochemical; conditions: thermodynamic from solid
Procedure: The samples are capped and stirred via magnetic stir bars for 24 to 48 hours at room temperature. Samples are filter centrifuged (800×g) for 5-10 minutes through Millipore Ultrafree-MC 0.22 Micron filter units. The supernate is analyzed by either UV or HPLC to quantitate the drug concentration.

[2] = Reduction of the N-oxide in vivo following intravenous and oral administration to rats; parameters: species or system male Sprague-Dawley rats; conditions: rat
Procedure: The rate and extent of reduction of the N-oxide of Example 2 was investigated in vivo using the following procedures: Six male Sprague-Dawley rats are used for this study. Three rats are given a single intravenous 10 mg/kg dose of the N-oxide and three rats are given a single oral 25 mg/kg dose of the N-oxide. Blood is collected pre-dose and up to 24 h post dose. The plasma is analyzed for the N-oxide and the parent amine by LC-MS.

[3] = aqueous buffer, pH 7, 50 mM phosphate buffer or other vehicle, room temperature, 24 to 48 hours, read-out: N-Oxide Solubility
[4] = aqueous buffer, parent amine of the example's N-oxide, pH 7, 50 mM phosphate buffer or other vehicle, room temperature, 24 to 48 hours, read-out: Parent Amine Solubility

SMILES | melting point [°C] | MIC (S. Aureus UC ® 9213) [µg/mL] | MIC (S. Pneumoniae UC ® 9912) [µg/mL] | solubility [1, 3] [µg/mL] | solubility [1, 4] [µg/mL] | other results
CC(=O)NC[C@H]1CN(c2ccc([N+]3([O-])CCN(C(=O)CO)CC3)c(F)c2)C(=O)O1 (hydrate or solvate) [Example 1, (S)-N-[[3-[3-fluoro4-[4-(hydroxyacetyl)-1-piperazinyl]phenyl]-2-oxo-5-oxazolidinyl]-methyl]acetamide N-oxide] | 158 to 160 | – | – | – | – | –
CC(=O)NC[C@H]1CN(c2ccc([N+]3([O-])CCN(C(=O)CO)CC3)c(F)c2)C(=O)O1 [Example 1, (S)-N-[[3-[3-fluoro4-[4-(hydroxyacetyl)-1-piperazinyl]phenyl]-2-oxo-5-oxazolidinyl]-methyl]acetamide N-oxide] | – | 2 (≈ 0.00487 mM) | 0.5 (≈ 0.00122 mM) | 348000 (≈ 848 mM) | – | –
CC(=O)NC[C@H]1CN(c2ccc([N+]3([O-])CCOCC3)c(F)c2)C(=O)O1 [Example 2] | 202 to 204 | 4 (≈ 0.0113 mM) | 1 (≈ 0.00283 mM) | 534000 (≈ 1510 mM) | – | N-oxide found in plasma ([2]; 10 mg/kg intravenous N-oxide, first time point immediately post injection, LC-MS): Only traces; Cmax, Tmax and AUC values for the parent amine compared with direct administration of the parent amine ([2]; N-oxide 10 mg/kg intravenous and 25 mg/kg oral, same doses and protocol): very similar; conversion of the N-oxide to the parent amine in vivo ([2]; intravenous and oral dosing): rapid and essentially quantitative; solubility ([1]; water, value stated, read-out: water solubility): 409000 µg/mL (≈ 1160 mM)
CC(=O)NC[C@H]1CN(c2cc(F)c([N+]3([O-])CCN(C(=O)CO)CC3)c(F)c2)C(=O)O1 [Example 4, (S)-N-[[3-[3,5-difluoro-4-[4-(hydroxyacetyl)-1-piperazinyl]phenyl]-2-oxo-5-oxazolidinyl]-methyl]acetamide N-oxide] | 100 to 105 | 2 (≈ 0.00467 mM) | 0.5 (≈ 0.00117 mM) | – | – | –
CC(=O)[NH+]([O-])C[C@@H]1CN(c2ccc(N3CCN(S(=O)(=O)CC#N)CC3)c(F)c2)C(=O)O1 (stereo partly drawn) [Example 5, (S)-N-[[3-[4-[4-[(cyanomethyl)sulfonyl]-1-piperazinyl]3-fluorophenyl]-2-oxo-5-oxazolidinyl]methyl]acetamide N-oxide] | 153 to 156 | 4 (≈ 0.00878 mM) | 0.5 (≈ 0.0011 mM) | – | – | –
CC(=O)NC[C@H]1CN(c2ccc([N+]3([O-])CCN(S(=O)(=O)c4ccccc4C#N)CC3)c(F)c2)C(=O)O1 [Example 6, (S)-N-[[3-[4-[4-[(2-cyanophenyl)sulfonyl]-1-piperazinyl]-3-fluorophenyl]-2-oxo-5-oxazolidinyl]methyl]acetamide N-oxide] | 190 to 192 | 2 (≈ 0.00386 mM) | 0.25 (≈ 0.000483 mM) | 1100 (≈ 2.13 mM) | – | –
CC(=O)NC[C@H]1CN(c2ccc(N3CCN(C(=O)CO)CC3)c(F)c2)C(=O)O1 [parent amine of Example 1, (S)-N-[[3-[3-Fluoro-4-[4-(hydroxyacetyl)-1-piperazinyl]-phenyl]-2-oxo-5-oxazolidinyl]methyl]-acetamide, reference compound] | – | – | – | – | 4200 (≈ 10.6 mM) | –
CC(=O)NC[C@H]1CN(c2ccc(N3CCOCC3)c(F)c2)C(=O)O1 [parent amine of Example 2, (S )-N-[[3-[3 -Fluoro-4-(4-morpholinyl)phenyl]-2-oxo-5-oxazolidinyl]methyl]-acetamide, reference compound] | – | – | – | – | – | time parent amine detected in plasma post dosing ([2]; after dosing of the N-oxide, lower limit of quantitation ≈0.01 μg/mL): up to 10 h
CC(=O)NC[C@H]1CN(c2ccc(N3CCN(S(C)(=O)=O)CC3)c(F)c2)C(=O)O1 [parent amine of Example 3, (S)-N-[[3-[3-fluoro-4-[4-(methylsulfonyl)-1-piperazinyl]phenyl]-2-oxo-5-oxazolidinyl]-methyl]acetamide, reference compound] | – | – | – | – | 280 (≈ 0.676 mM) | –
CC(=O)NC[C@H]1CN(c2ccc(N3CCN(S(=O)(=O)c4ccccc4C#N)CC3)c(F)c2)C(=O)O1 [parent amine of Example 6, (S)-N-[[3-[4-[4-[(2-cyanophenyl)sulfonyl]-1-piperazinyl]-3-fluorophenyl]-2-oxo-5-oxazolidinyl]methyl]acetamide, reference compound] | – | – | – | – | 31 (≈ 0.0618 mM) | –
